In test [1] the target is T1, Replicative DNA helicase DnaB (Mycobacterium tuberculosis, UniProt P9WMR3).
T1 sequence (P9WMR3 whole entry): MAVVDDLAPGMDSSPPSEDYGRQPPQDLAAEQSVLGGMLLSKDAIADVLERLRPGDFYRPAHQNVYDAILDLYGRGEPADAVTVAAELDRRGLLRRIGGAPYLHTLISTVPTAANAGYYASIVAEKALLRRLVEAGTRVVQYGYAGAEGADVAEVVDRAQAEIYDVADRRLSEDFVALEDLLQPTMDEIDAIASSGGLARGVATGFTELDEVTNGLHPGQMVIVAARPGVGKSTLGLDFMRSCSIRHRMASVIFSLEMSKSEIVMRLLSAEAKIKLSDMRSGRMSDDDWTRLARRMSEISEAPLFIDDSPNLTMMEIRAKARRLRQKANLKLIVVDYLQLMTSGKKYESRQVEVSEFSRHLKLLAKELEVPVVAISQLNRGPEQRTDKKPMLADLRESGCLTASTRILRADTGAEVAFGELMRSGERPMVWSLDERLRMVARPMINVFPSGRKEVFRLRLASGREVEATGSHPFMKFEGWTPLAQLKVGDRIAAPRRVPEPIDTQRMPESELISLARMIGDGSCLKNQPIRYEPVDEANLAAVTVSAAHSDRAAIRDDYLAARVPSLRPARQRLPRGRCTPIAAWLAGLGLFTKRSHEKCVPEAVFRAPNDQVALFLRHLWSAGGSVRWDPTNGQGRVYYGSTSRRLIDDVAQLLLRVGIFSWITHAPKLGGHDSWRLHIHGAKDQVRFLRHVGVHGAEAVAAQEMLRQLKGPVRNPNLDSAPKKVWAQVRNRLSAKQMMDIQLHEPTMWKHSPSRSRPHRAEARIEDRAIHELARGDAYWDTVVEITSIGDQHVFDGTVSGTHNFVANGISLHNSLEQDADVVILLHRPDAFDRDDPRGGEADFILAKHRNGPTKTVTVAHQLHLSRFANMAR
Nature of the test: DnaB intein splicing inhibitors, dose response, biochemical, cell-free fluorescence (AID 449749). Format: functional.

The next test addresses Genome polyprotein (dengue virus type 2, UniProt P29990). In words: flavivirus cap methylation enzyme inhibition – biochemical, confirmation dose response, primary screen (AID 588689). Format: functional.
The target in test [2] is T2, Apoptotic protease-activating factor 1 (Homo sapiens, UniProt O14727).
T2 sequence (O14727 whole entry): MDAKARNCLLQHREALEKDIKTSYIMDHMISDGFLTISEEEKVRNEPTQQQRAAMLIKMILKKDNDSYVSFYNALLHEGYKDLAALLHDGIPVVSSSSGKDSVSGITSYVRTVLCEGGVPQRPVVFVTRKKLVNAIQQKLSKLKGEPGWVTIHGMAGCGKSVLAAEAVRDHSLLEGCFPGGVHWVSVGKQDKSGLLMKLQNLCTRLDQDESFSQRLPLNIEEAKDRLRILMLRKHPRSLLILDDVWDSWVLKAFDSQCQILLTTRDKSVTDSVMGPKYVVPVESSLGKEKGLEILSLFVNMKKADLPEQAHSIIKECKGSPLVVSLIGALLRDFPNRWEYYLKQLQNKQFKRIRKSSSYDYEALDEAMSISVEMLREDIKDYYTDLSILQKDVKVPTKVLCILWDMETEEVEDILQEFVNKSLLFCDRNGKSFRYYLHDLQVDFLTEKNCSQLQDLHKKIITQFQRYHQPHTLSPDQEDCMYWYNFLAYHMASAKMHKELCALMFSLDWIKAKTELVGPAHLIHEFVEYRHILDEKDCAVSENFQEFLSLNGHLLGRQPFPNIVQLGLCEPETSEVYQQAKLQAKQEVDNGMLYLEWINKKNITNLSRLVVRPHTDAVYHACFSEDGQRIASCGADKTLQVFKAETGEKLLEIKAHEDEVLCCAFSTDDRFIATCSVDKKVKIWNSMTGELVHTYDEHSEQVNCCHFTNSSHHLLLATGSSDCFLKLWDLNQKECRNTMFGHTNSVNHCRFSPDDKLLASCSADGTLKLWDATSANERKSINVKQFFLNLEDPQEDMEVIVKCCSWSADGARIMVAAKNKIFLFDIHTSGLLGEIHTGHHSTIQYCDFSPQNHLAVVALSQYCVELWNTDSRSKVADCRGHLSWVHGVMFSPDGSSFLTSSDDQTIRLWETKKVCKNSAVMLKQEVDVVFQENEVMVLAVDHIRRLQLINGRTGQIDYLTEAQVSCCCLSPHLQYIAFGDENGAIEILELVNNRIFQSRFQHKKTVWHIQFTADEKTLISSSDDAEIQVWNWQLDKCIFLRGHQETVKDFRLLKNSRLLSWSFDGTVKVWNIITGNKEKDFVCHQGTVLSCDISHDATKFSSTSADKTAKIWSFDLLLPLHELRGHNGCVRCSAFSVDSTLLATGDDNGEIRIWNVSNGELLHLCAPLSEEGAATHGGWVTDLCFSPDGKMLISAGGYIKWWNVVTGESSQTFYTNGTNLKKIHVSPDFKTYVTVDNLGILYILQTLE
It is filed as functional.

Test [3] concerns the target T3, RNA-binding protein pos-1 (Caenorhabditis elegans, UniProt G5EF15).
T3 sequence (G5EF15 whole entry): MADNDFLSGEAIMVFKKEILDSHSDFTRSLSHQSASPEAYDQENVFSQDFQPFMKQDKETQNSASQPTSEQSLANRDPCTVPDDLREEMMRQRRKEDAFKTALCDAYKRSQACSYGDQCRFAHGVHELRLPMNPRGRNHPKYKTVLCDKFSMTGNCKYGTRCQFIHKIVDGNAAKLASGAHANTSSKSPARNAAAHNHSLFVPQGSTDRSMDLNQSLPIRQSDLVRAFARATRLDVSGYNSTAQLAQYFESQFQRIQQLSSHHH
Nature of the test: disruptors of C. elegans POS-1 RNA interaction – biochemical, fluorescence polarization, dose response (AID 1964).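 Further: purified POS-1 fused to maltose binding protein made in E. coli; potency of compounds blocking POS-1 binding to fluorescent RNA.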

In a further test the target is Albumin (Bos taurus, UniProt P02769). In words: Counterscreen for inhibitors of T-cell receptor (TCR)-CD3 interaction: Fluorescence-based biochemical high throughput dose response assay to identify inhibitors of T-cell receptor (TCR)-CD3 interaction using a TAMRA-labeled BSA probe. Format: functional.
Test [4] in a line: mitochondrial function rescue without frataxin homolog – Friedreich's ataxia, plus single-dose screen, dose response (AID 1465).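 Further: yeast depleted of Yfh1p frataxin homolog grown on glycerol needing respiration; WST-1 tetrazolium dye reduction as measure of cellular dehydrogenase metabolic activity.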 It is filed as functional.

The source of these data is ChEMBL document CHEMBL1201862, “PubChem BioAssay data set” (2004).

Activity calls are given as the source filed them.

Genome polyprotein, sequence (P29990 2492-3391 limits assumed): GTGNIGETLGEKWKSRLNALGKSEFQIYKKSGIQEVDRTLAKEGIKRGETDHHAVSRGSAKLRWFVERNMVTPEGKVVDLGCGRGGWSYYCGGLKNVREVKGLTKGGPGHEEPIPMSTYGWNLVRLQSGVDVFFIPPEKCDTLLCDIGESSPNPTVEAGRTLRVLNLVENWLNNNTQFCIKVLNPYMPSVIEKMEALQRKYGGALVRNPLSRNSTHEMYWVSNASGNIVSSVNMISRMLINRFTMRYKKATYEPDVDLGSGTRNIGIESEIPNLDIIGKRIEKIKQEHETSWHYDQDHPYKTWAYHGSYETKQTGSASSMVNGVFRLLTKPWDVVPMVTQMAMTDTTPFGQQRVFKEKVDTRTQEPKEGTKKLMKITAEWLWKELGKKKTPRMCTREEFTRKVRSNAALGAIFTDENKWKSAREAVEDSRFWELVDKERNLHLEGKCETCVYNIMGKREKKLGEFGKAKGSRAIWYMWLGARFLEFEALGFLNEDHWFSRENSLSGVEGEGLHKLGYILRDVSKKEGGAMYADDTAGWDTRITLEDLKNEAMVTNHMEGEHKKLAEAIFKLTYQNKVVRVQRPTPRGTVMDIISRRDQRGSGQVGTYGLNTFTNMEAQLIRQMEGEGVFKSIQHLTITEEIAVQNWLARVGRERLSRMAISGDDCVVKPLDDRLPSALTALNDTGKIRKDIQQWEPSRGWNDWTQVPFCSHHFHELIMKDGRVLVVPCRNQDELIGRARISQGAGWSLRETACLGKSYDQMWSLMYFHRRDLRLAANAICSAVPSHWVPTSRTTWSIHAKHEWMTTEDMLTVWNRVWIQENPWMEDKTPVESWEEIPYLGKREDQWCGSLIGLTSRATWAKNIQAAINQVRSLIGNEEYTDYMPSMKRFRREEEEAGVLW
Albumin, sequence (P02769 whole entry): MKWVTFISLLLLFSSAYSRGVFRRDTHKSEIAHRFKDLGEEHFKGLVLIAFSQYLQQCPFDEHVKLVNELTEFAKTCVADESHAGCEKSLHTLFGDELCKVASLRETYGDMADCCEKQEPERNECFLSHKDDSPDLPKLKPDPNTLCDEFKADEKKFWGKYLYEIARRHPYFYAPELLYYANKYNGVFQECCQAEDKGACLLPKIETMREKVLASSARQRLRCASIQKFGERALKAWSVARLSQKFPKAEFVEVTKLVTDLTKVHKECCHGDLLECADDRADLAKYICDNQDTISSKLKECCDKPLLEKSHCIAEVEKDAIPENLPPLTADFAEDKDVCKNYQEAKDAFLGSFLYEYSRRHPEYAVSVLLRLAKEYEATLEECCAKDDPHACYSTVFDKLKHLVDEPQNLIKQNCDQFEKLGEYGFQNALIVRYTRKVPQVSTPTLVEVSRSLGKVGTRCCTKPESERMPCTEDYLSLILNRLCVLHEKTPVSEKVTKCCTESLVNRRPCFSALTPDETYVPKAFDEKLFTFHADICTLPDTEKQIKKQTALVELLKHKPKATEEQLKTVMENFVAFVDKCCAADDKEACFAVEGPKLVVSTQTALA

As to `COC(=O)c1ccc(-c2ccc(C(c3c(C)[nH][nH]c3=O)c3c(C)[nH][nH]c3=O)o2)cc1`, in test [1], the AC50 is 595 nM (inconclusive). Further, the results for the IC50 (on Genome polyprotein; in test [2]) were > 100 µM (active) and 23.9 µM (active), respectively.

Consider `Oc1ccc(/C=N/NC(=S)Nc2cccnc2)c(O)c1O`, for which the figures for the EC50 in test [3] and in test [4] were 71.4 µM (active) and > 100 µM (active), respectively. Also, the IC50 is 24.4 µM (active) on Genome polyprotein and > 94.1 µM (inactive) at Albumin.
